Measurements published in PubChem BioAssay AID330 (DTP/NCI, 2004).
Several values for one entry are separate records, joined by “and”; a condition that tells them apart may be missing. Identical values can stand only once. Inconclusive results and toxic doses are left out. How the source made its calls: active means survival T/C of 150% or more; inactive means T/C below 125% in these data.

Test system: P388 leukemia ip, CD2F1 mice, survival T/C
Assay: NCI In Vivo Anticancer Drug Screen. Data for tumor model P388 Leukemia (intraperitoneal) in CD2F1 (CDF1) mice
Details: endpoint: median survival time, higher = longer survival
Procedure, shortened: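 Mice carrying the transplanted tumor received test compound or vehicle. Survival was recorded in each group, and the value is the treated-group measurement divided by that of the vehicle-treated control group.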

[1] = dose: 50.0 mg/kg/injection, schedule: Q01DX005 (ip), vehicle: saline with Tween-80
[2] = dose: 100.0 mg/kg/injection, schedule: Q01DX005 (ip), vehicle: saline with Tween-80
[3] = dose: 60.0 mg/kg/injection, schedule: Q01DX005 (ip), vehicle: saline with Tween-80
[4] = dose: 120.0 mg/kg/injection, schedule: Q01DX005 (ip), vehicle: saline with Tween-80
[5] = dose: 12.5 mg/kg/injection, schedule: Q01DX009 (ip), vehicle: saline with Tween-80
[6] = dose: 25.0 mg/kg/injection, schedule: Q01DX009 (ip), vehicle: saline with Tween-80
[7] = dose: 50.0 mg/kg/injection, schedule: Q01DX009 (ip), vehicle: saline with Tween-80
[8] = dose: 100.0 mg/kg/injection, schedule: Q01DX009 (ip), vehicle: saline with Tween-80
[9] = dose: 200.0 mg/kg/injection, schedule: Q01DX005 (ip), vehicle: saline with Tween-80
[10] = dose: 100.0 mg/kg/injection, schedule: Q01DX009 (ip), vehicle: Klucel (hydroxypropylcellulose) (HPC)
[11] = dose: 200.0 mg/kg/injection, schedule: Q01DX009 (ip), vehicle: Klucel (hydroxypropylcellulose) (HPC)
[12] = dose: 100.0 mg/kg/injection, schedule: Q01DX001 (ip), vehicle: saline with Tween-80
[13] = dose: 200.0 mg/kg/injection, schedule: Q01DX001 (ip), vehicle: saline with Tween-80
[14] = dose: 400.0 mg/kg/injection, schedule: Q01DX001 (ip), vehicle: saline with Tween-80
[15] = dose: 12.5 mg/kg/injection, schedule: Q01DX005 (ip), vehicle: saline with Tween-80
[16] = dose: 25.0 mg/kg/injection, schedule: Q01DX005 (ip), vehicle: saline with Tween-80
[17] = dose: 100.0 mg/kg/injection, schedule: Q04DX003 (ip), vehicle: saline with Tween-80
[18] = dose: 200.0 mg/kg/injection, schedule: Q04DX003 (ip), vehicle: saline with Tween-80

Measured: T/C

COc1ccc2c(c1)CCC1C2=CCC2C(=O)OC(=O)C21C (stereo not given)
inactive: [1] 103 % of control | [2] 108 % of control

CSc1nc(N)c(NS(=O)(=O)c2ccc(NC(C)=O)cc2)c(=O)[nH]1
inactive: [3] 93 % of control | [4] 91 % of control | dose: 240.0 mg/kg/injection, schedule: Q01DX005 (ip), vehicle: saline with Tween-80 96 % of control

CN(C)CCOc1ccc2c(c1)CC/C(=C\c1ncc([N+](=O)[O-])n1C)C2=O
inactive: [5] 108 % of control | [6] 108 % of control | [7] 109 % of control and 118 % of control

OC(COc1c2ccccc2nc2ccccc12)CN1CCN(c2ccccc2)CC1 (stereo not given)
inactive: [1] 94 % of control | [2] 90 % of control

O=c1ccc2cc3c(nc2[nH]1)[nH]c1ccccc13
inactive: dose: 100.0 mg/kg/injection, schedule: Q04DX002 (ip), vehicle: Klucel (hydroxypropylcellulose) (HPC) 101 % of control | dose: 200.0 mg/kg/injection, schedule: Q04DX002 (ip), vehicle: Klucel (hydroxypropylcellulose) (HPC) 99 % of control | dose: 400.0 mg/kg/injection, schedule: Q04DX002 (ip), vehicle: Klucel (hydroxypropylcellulose) (HPC) 101 % of control

O=C(NC(=S)c1cccs1)Nc1ccccc1
inactive: dose: 4.0 mg/kg/injection, schedule: Q01DX009 (ip), vehicle: saline with Tween-80 89 % of control | dose: 8.0 mg/kg/injection, schedule: Q01DX009 (ip), vehicle: saline with Tween-80 94 % of control | dose: 16.0 mg/kg/injection, schedule: Q01DX009 (ip), vehicle: saline with Tween-80 87 % of control | [7] 89 % of control | [8] 100 % of control

Cc1cc2nc(CC(=O)c3ccncc3)c(=O)[nH]c2cc1C
inactive: [3] 95 % of control | [4] 87 % of control

Cc1ccc2[nH]c(=S)n(-c3ccc(S(=O)(=O)N4CCCCC4)cc3)c(=O)c2c1
inactive: [1] 89 % of control | [2] 91 % of control | [9] 90 % of control

O=C(Oc1ccccc1OC(=O)c1ccccc1)c1ccccc1
inactive: dose: 6.25 mg/kg/injection, schedule: Q01DX009 (ip), vehicle: saline with Tween-80 108 % of control | [5] 102 % of control | [6] 106 % of control | [7] 108 % of control

CC(C)C(NC(=O)CCl)C(=O)O (stereo not given)
inactive: [10] 98 % of control | [11] 109 % of control

CN1C(=O)C(=O)N(C)C(=O)C1=O
inactive: dose: 50.0 mg/kg/injection, schedule: Q01DX005 (ip), vehicle: Klucel (hydroxypropylcellulose) (HPC) 100 % of control | dose: 100.0 mg/kg/injection, schedule: Q01DX005 (ip), vehicle: Klucel (hydroxypropylcellulose) (HPC) 93 % of control | dose: 200.0 mg/kg/injection, schedule: Q01DX005 (ip), vehicle: Klucel (hydroxypropylcellulose) (HPC) 103 % of control

C=C(C)C1(O)c2c(Cl)cccc2C(c2ccccc2)c2cccc(Cl)c21 (stereo not given)
inactive: [12] 110 % of control | [13] 107 % of control | [14] 100 % of control

CC1CC2=C(C1)C(C1(C)C(=O)CC3C(C1=O)C3(C)C)C(C)C2=O (stereo not given)
inactive: dose: 12.5 mg/kg/injection, schedule: Q01DX001 (ip), vehicle: Klucel (hydroxypropylcellulose) (HPC) 100 % of control | dose: 25.0 mg/kg/injection, schedule: Q01DX001 (ip), vehicle: Klucel (hydroxypropylcellulose) (HPC) 96 % of control | dose: 50.0 mg/kg/injection, schedule: Q01DX001 (ip), vehicle: Klucel (hydroxypropylcellulose) (HPC) 102 % of control | dose: 100.0 mg/kg/injection, schedule: Q01DX001 (ip), vehicle: Klucel (hydroxypropylcellulose) (HPC) 96 % of control

CCCNC(C)(C)C(SSSC(c1ccc(C(F)(F)F)cc1)C(C)(C)NCCC)c1ccc(C(F)(F)F)cc1 (stereo not given)
inactive: [12] 100 % of control | [13] 104 % of control | [14] 100 % of control

CC(C)C(NC(=O)[C@@H](C(C)C)N1C(=O)c2ccccc2C1=O)C(=O)O (stereo not given in full)
inactive: [15] 101 % of control | [16] 101 % of control | [1] 99 % of control and 88 % of control | [9] 100 % of control

C#CCC(C(=O)OC)N(CC)CC (stereo not given)
inactive: dose: 60.0 mg/kg/injection, schedule: Q01DX005 (ip), vehicle: saline 107 % of control | dose: 120.0 mg/kg/injection, schedule: Q01DX005 (ip), vehicle: saline 111 % of control | dose: 240.0 mg/kg/injection, schedule: Q01DX005 (ip), vehicle: saline 120 % of control

S=c1[nH]c2cc(Cl)ccc2s1
inactive: [8] 109 % of control | [17] 100 % of control | [18] 104 % of control | dose: 400.0 mg/kg/injection, schedule: Q04DX003 (ip), vehicle: saline with Tween-80 109 % of control

CCc1c(C)[nH]n(C(N)=NCCSCc2nc[nH]c2C)c1=O
inactive: dose: 60.0 mg/kg/injection, schedule: Q01DX005 (ip), vehicle: Klucel (hydroxypropylcellulose) (HPC) 108 % of control | dose: 120.0 mg/kg/injection, schedule: Q01DX005 (ip), vehicle: Klucel (hydroxypropylcellulose) (HPC) 100 % of control | dose: 240.0 mg/kg/injection, schedule: Q01DX005 (ip), vehicle: Klucel (hydroxypropylcellulose) (HPC) 91 % of control

O=C(NCc1ccncc1)c1ccccc1
inactive: dose: 100.0 mg/kg/injection, schedule: Q04DX003 (ip), vehicle: saline 104 % of control | dose: 200.0 mg/kg/injection, schedule: Q04DX003 (ip), vehicle: saline 100 % of control | dose: 400.0 mg/kg/injection, schedule: Q04DX003 (ip), vehicle: saline 106 % of control

ON(C(=S)Nc1ccc(Cl)cc1)c1ccccc1
inactive: [15] 104 % of control | [16] 100 % of control | [1] 95 % of control and 98 % of control | [2] 94 % of control | [9] 97 % of control

CCCCCCCCCCCCCCCCCC(=O)[Se][Se]C(=O)CCCCCCCCCCCCCCCCC
inactive: dose: 50.0 mg/kg/injection, schedule: Q01DX009 (ip), vehicle: saline + Tween-80 + alcohol 99 % of control | dose: 100.0 mg/kg/injection, schedule: Q01DX009 (ip), vehicle: saline + Tween-80 + alcohol 104 % of control | dose: 200.0 mg/kg/injection, schedule: Q01DX009 (ip), vehicle: saline + Tween-80 + alcohol 104 % of control

CC12OC1C(=O)C1C3C=CC(C3)C1C2=O (stereo not given)
inactive: dose: 75.0 mg/kg/injection, schedule: Q04DX002 (ip), vehicle: saline with Tween-80 96 % of control | dose: 150.0 mg/kg/injection, schedule: Q04DX002 (ip), vehicle: saline with Tween-80 96 % of control | dose: 300.0 mg/kg/injection, schedule: Q04DX002 (ip), vehicle: saline with Tween-80 97 % of control

CC(=O)CC(=O)c1ccc(Br)cc1.CC(=O)CC(=O)c1ccc(Br)cc1.[Ni]
inactive: [12] 90 % of control | [13] 87 % of control | [14] 90 % of control

O=C1OC(c2ccc(Cl)cc2)Sc2ccccc21 (stereo not given)
inactive: dose: 25.0 mg/kg/injection, schedule: Q04DX003 (ip), vehicle: saline with Tween-80 102 % of control | dose: 50.0 mg/kg/injection, schedule: Q04DX003 (ip), vehicle: saline with Tween-80 93 % of control | [17] 102 % of control | [18] 100 % of control

CC(C)(C)c1cc(CCc2nc(CCc3cc(C(C)(C)C)c(O)c(C(C)(C)C)c3)nc(CCc3cc(C(C)(C)C)c(O)c(C(C)(C)C)c3)n2)cc(C(C)(C)C)c1O
inactive: dose: 50.0 mg/kg/injection, schedule: Q01DX009 (ip), vehicle: Klucel (hydroxypropylcellulose) (HPC) 92 % of control | [10] 88 % of control | [11] 93 % of control
